According to patent US20240197702A1, “ANTISEPTIC-ANTIBIOTIC GUMBOS EFFECTIVE AGAINST GRAM-NEGATIVE PATHOGENS” (priority 2020, published 2024):
Converted amounts (≈) assume the structure as drawn. Read-outs that look alike come from different tables or passages of the source.

Legend:
[1] = tested on: N. gonorrhoeae clinical isolates; test: Kirby-Bauer disc diffusion against N. gonorrhoeae clinical isolates; format: cell-based, Neisseria gonorrhoeae; details: three clinical isolates, 20-24 h
Method: (§1) Antimicrobial susceptibility testing: Kirby-Bauer disc diffusion susceptibility tests were used to determine zones of inhibition (ZOIs) for N. gonorrhoeae (ATCC 49226) and three clinical isolates obtained from Louisiana State University Health Sciences Center New Orleans HIV Outpatient Clinic. Kirby-Bauer disc diffusion is one of the CDC's preferred methods of testing the susceptibility of N. gonorrhoeae. Testing was performed according to CLSI recommended procedures. In this susceptibility test, 6 mm diameter blank paper discs were impregnated with known quantities of antimicrobial drug followed by evaporation of solvent; however, ceftriaxone, azithromycin and doxycycline antimicrobial susceptibility discs were purchased from Thermo Fisher Scientific. Impregnated discs were placed onto prepared nutrient agar plates that were inoculated with N. gonorrhoeae to give a confluent lawn of growth. Suspensions of these various strains were prepared in accordance with a 1.0 McFarland standard. Inoculated agar plates were incubated for 20-24 h at 37° C. in a 5% CO2 atmosphere.
(§2) Blank discs were loaded with 50 nmol of GUMBOS, respective constituent compounds and equivalent stoichiometric unreacted mixtures of octenidine and carbenicillin that are equimolar to the purchased ceftriaxone discs (Oxoid™, Thermo Fisher). After 20-24 h incubation, diameters of ZOIs were measured using a ruler. […] Antibacterial activity was improved for octenidine when chloride ions were exchanged for the antibiotic. […] This effect was not seen, however, for an unreacted mixture of the two drugs for either N. gonorrhoeae (ATCC 49226) or clinical isolates. The ZOIs of octenidine/carbenicillin were also larger than or equal to azithromycin and doxycycline ZOIs for N. gonorrhoeae (ATCC 49226). […] This is significant as resistance rates for azithromycin have increased worldwide. Among 57 countries reporting on azithromycin susceptibility, 28 (49%) reported>5% resistance. […] Ceftriaxone produced large ZOIs as the clinical population still remains susceptible to it in the USA (only 0.2% of isolates had elevated resistance to ceftriaxone in 2017).

[2] = tested on: Carbapenem-resistant clinical isolate of Enterobacter cloacae; test: MIC by micro-broth dilution against carbapenem-resistant E. cloacae; format: cell-based; details: CRE E. cloacae, MH broth
Method: (§3) Minimum Inhibitory Concentrations of GUMBOS against N. gonorrhoeae: Clinical isolates of N. gonorrhoeae and N. gonorrhoeae ATCC 49226 were obtained from Louisiana State University Health Sciences Center New Orleans HIV Outpatient Clinic. Minimum inhibitory concentrations (MICs) of GUMBOS, constituent parent drugs, azithromycin, and unreacted mixtures were determined using micro-broth dilution in 96-well plates. Stock solutions of 1 mM were prepared in deionized water (1% DMSO). Stock solutions were diluted to a known working concentration and 100 μL were added to the first row of the plate. For susceptibility testing of N. gonorrhoeae, media was prepared according to methods reported by Wade and Graver (Fed. Euro. Microbiol. Soc. Microbiol. Letts (2007), 273 (1), 35-37). This liquid medium allowed dense growth of N. gonorrhoeae for use in broth dilution tests. Protein-free liquid media (100 μL) were added to each well and two-fold dilutions were performed. The antibiotic containing wells were inoculated with an equal volume of bacterial inoculum matching a 0.5 McFarland standard. Microtiter plates were incubated for 20-24 hours at 37° C. with 5% CO2 and examined for visible signs of bacterial growth as evidenced by turbidity. The lowest concentration of antibiotic that prevents growth is the MIC.
(§4) Minimum Inhibitory Concentrations of GUMBOS against Carbapenem-resistant Enterobacteriaceae: GUMBOS, ceftriaxone, and azithromycin were tested against extended spectrum beta-lactamase (ESBL)-producing gram negative bacteria. Carbapenem-resistant clinical isolates of Escherichia coli, Enterobacter cloacae, and Klebsiella pneumoniae were obtained from Louisiana State University (LSU) Health Sciences Center New Orleans HIV Outpatient Clinic. Minimum inhibitory concentrations were determined as described above using micro-broth dilutions with two minor adjustments, cation-adjusted Mueller Hinton (MH) broth was used instead and stock solutions of test compounds were prepared directly in MH broth.

[3] = tested on: Carbapenem-resistant clinical isolate of Klebsiella pneumoniae; test: MIC by micro-broth dilution against carbapenem-resistant K. pneumoniae; format: cell-based; details: CRE K. pneumoniae, MH broth
Method: as §3, §4

[4] = tested on: N. gonorrhoeae ATCC 49226; test: MIC by micro-broth dilution against N. gonorrhoeae ATCC 49226; format: cell-based, Neisseria gonorrhoeae; details: for MIC: ATCC 49226, micro-broth dilution, 20-24 hours
Method: as §3, with “Stock solutions of 1 mM were prepared in deionized water (1% DMSO).” left out, “[…].” for “Graver (Fed.”, “Letts (2007), 273 (1), 35-37).” left out, “Microtiter plates were incubated for 20-24 hours at 37° C. with 5% CO2 and examined for visible signs of bacterial growth as evidenced by turbidity.” left out

[5] = tested on: N. gonorrhoeae ATCC 49226; test: Kirby-Bauer disc diffusion against N. gonorrhoeae ATCC 49226; format: cell-based, Neisseria gonorrhoeae; details: for Zone size, mm (±SD): ATCC 49226, disc diffusion, 20-24 h; for Zone sizes against CLSI susceptibility range: N. gonorrhoeae (ATCC 49226) and three clinical isolates
Method: as §1, §2

[6] = tested on: clinical isolates of N. gonorrhoeae; test: MIC by micro-broth dilution against N. gonorrhoeae clinical isolates; format: cell-based, Neisseria gonorrhoeae; details: for MIC: four clinical isolates, micro-broth dilution, 20-24 hours
Method: as §3, with “Stock solutions of 1 mM were prepared in deionized water (1% DMSO).” left out, “[…].” for “Graver (Fed.”, “Letts (2007), 273 (1), 35-37).” left out, “Microtiter plates were incubated for 20-24 hours at 37° C. with 5% CO2 and examined for visible signs of bacterial growth as evidenced by turbidity.” left out

[7] = tested on: Carbapenem-resistant clinical isolates of Escherichia coli; test: MIC by micro-broth dilution against carbapenem-resistant E. coli; format: cell-based; details: MH broth
Method: as §3, §4

[8] = tested on: HeLa cells; test: MTT cytotoxicity assay of ceftriaxone-based GUMBOS; format: cell-based; details: for IC50: read-out: Acute cytotoxicity (IC50); for Relative cell toxicity (in words): comparison with mixture or parent antiseptic
Method: Cytotoxicity Assay of GUMBOS: Cytotoxicity of GUMBOS, unreacted mixtures, and antiseptics towards healthy cells were evaluated using the MTT assay, a colorimetric dye assay, according to manufacturer's instructions. […] Stock solutions of antimicrobial agents in cell medium (1% MeOH) were diluted to a known working concentration, doubly diluted, and transferred to seeded cells. […] Cells treated with only DMEM were used as a negative control. After incubation, 15 μL of MTT were added to each well and cells were further incubated for an hour. Sodium dodecyl sulfate dimethylformamide solution was added after this additional incubation time in order to dissolve the purple formazan crystals. Cell viability was quantified at 570 nm using a microplate spectrophotometer (Eppendorf PlateReader AF2200, Hauppauge, NY). Cell viability as a percentage was determined as the ratio between treated cells and untreated (control) cells taken as 100%.

[9] = Octanol-water partition coefficient (Log P), shake-flask method

MIC [2] | MIC [3] | MIC [4] | MIC [6] | MIC ([7]; CRE E. Coli (Isolate 2)) | MIC ([7]; CRE E. coli (Isolate 1)) | SMILES | Zone size, mm (±SD) [1] | Zone size, mm (±SD) [5] | IC50 ([8]; 15 min) | IC50 ([8]; 60 min) | further results
– | – | – | – | – | – | CC[C@H]1OC(=O)[C@H](C)[C@@H](O[C@H]2C[C@@](C)(OC)[C@@H](O)[C@H](C)O2)[C@H](C)[C@@H](O[C@@H]2O[C@H](C)C[C@H](N(C)C)[C@H]2O)[C@](C)(O)C[C@@H](C)CN(C)[C@H](C)[C@@H](O)[C@]1(C)O [Azithromycin, azithromycin] | 36 ± 4 mm | 40 ± 1 mm | – | – | MIC ([2]; Enterobacter cloacae): 250 µM (≈ 187 µg/mL); MIC ([3]; Klebsiella pneumoniae): 250 µM (≈ 187 µg/mL); MIC ([4]; Neisseria gonorrhoeae, ATCC49226): 0.8 µM (≈ 0.599 µg/mL); Zone sizes against CLSI susceptibility range [5]: within the susceptibility range set by CLSI; Concentration required for growth inhibition, fold greater than GUMBOS ([6]; N. gonorrhoeae clinical isolates): six to nine; MIC ([6]; Neisseria gonorrhoeae, read-out: MIC): 0.6 ± 0.2 µM (≈ 0.449 µg/mL); MIC ([7]; Escherichia coli, CRE E. Coli (Isolate 2)): 250 µM (≈ 187 µg/mL); MIC ([7]; Escherichia coli, CRE E. coli (Isolate 1)): > 500 µM
– | – | – | – | – | – | CC1(C)S[C@@H]2[C@H](NC(=O)C(C(=O)[O-])c3ccccc3)C(=O)N2[C@H]1C(=O)[O-].[Na+].[Na+] (some centres unmarked) [Na2 CAR, disodium carbenicillin] | 28 ± 3 mm | 27 ± 3 mm | – | – | –
– | – | – | – | – | – | C[C@H]1c2cccc(O)c2C(=O)C2=C(O)[C@]3(O)C(=O)C(C(N)=O)=C(O)[C@@H](N(C)C)[C@@H]3[C@@H](O)[C@@H]21 [Doxycycline, doxycycline] | 28 ± 7 mm | 35 ± 0.6 mm | – | – | –
>500 µM | >500 µM | 0.04 µM | – | >500 µM | >500 µM | CO/N=C(\C(=O)N[C@@H]1C(=O)N2C(C(=O)[O-])=C(CSc3nc(=O)c([O-])nn3C)CS[C@H]12)c1csc(N)n1.[Na+].[Na+] [Ceftriaxone, Ceftriaxone disodium salt] | 49 ± 4 mm | 51 ± 1 mm | – | – | Concentration as compared to GUMBOS ([4]; N. gonorrhoeae ATCC 49226): half-fold decrease; Zone sizes against CLSI susceptibility range [5]: within the susceptibility range set by CLSI; MIC ([6]; read-out: MIC): 0.02 µM
50 µM | 50 µM | 0.08 µM | 0.06 ± 0.02 µM | 12.5 µM | 25 µM | CON=C(C(=O)NC1C(=O)N2C(C(=O)O)=C(CSc3nc(=O)c(O)nn3C)CSC12)c1csc(N)n1.N=C(NCCCCCCNC(=N)NC(=N)Nc1ccc(Cl)cc1)NC(=N)Nc1ccc(Cl)cc1 (centres unmarked) [[CHX][CRO], chlorhexidine-ceftriaxone] | – | – | 84.3 ± 5.87 µM | 45.5 ± 1.42 µM | Relative cell toxicity (in words) [8]: only slightly less toxic; Relative cell toxicity (in words) ([8]; listed as Chlorhexidine-ceftriaxone): significantly less toxic than its unreacted, stoichiometric mixture; Log P [9]: 0.2 (±0.1)
– | – | 3.1 µM | 4.7 ± 1.8 µM | – | – | CC(=O)O.CC(=O)O.NC(=N\CCCCCC/N=C(N)/N=C(\N)Nc1ccc(Cl)cc1)/N=C(\N)Nc1ccc(Cl)cc1 [Chlorhexidine diacetate, chlorhexidine diacetate] | – | – | 80.8 ± 4.27 µM | 24.6 ± 0.66 µM | –

SMILES | MIC [2] | MIC [3] | MIC [4] | MIC [6] | MIC ([7]; CRE E. Coli (Isolate 2)) | MIC ([7]; CRE E. coli (Isolate 1)) | Zone size, mm (±SD) [1] | Zone size, mm (±SD) [5] | IC50 ([8]; 15 min) | IC50 ([8]; 60 min) | further results
CCCCCCCCNc1cc[n+](CCCCCCCCCC[n+]2ccc(NCCCCCCCC)cc2)cc1.CON=C(C(=O)NC1C(=O)N2C(C(=O)[O-])=C(CSc3nc(=O)c([O-])nn3C)CSC12)c1csc(N)n1 [[OCT][CRO], octenidine-ceftriaxone] | 25 µM | 25 µM | 0.08 µM | 0.09 ± 0.07 µM | 25 µM | 50 µM | – | – | 66.5 ± 8.24 µM | 43.3 ± 5.98 µM | Relative cell toxicity (in words) [8]: significantly less toxic than octenidine dihydrochloride; Relative cell toxicity (in words) ([8]; listed as octenidine-ceftriaxone): indifferent toxicity to its unreacted, stoichiometric mixture of parent compounds; Log P [9]: 0.3 (±0.2)
